Results from patent US20210121414A1, “METHOD FOR PRODUCING A PHARMACEUTICAL COMPOSITION OF POLYMERIC NANOPARTICLES FOR TREATING NEUROPATHIC PAIN CAUSED BY […] COMPRESSION” (UNIVERSIDAD DE SEVILLA, priority 2015, published 2021).

Assays:
[1] = tested on: established mechanical hyperalgesia; conditions: cited from earlier work
central nervous system = conditions: rats; cited from earlier work
[2] = cited from earlier work
[3] = cited from earlier work; remark: listed apart in the source
[4] = tested on: Chronic constriction injury (CCI) model of mononeuropathy, mechanical hyperalgesia; assay: Paw-pinch test of mechanical hyperalgesia in chronic constriction injury (CCI) rats after single oral administration; type: in vivo, Harlan Sprague-Dawley male albino rats; conditions: CB13 alone
Method: Harlan Sprague-Dawley male albino rats (230-350 g), provided by the University of Cádiz Animal Experimentation Unit registered under the number ES110120000210, were used. The animals were kept under standard housing conditions (21° C., 12h light-dark cycle, “ad libitum” water and food). All experiments were carried out in accordance with the ethical guidelines for working with experimental animals proposed by the International Association for the Study of Pain […] and by the Federation of Laboratory Animal Science Associations (FELASA).
Chronic constriction injury, (CCI) was used as a model of mononeuropathy since it is a model that correlates well with the symptoms presented in the patients (spontaneous pain, mechanical and thermal allodynia and hyperalgesia.
Nociceptive behavior was evaluated in the ipsi- and contralateral paw to the ligation for sciatic nerve […]. The presence of mechanical hyperalgesia was assessed by using the paw-pinch test. Thus, gradual, increasing pressure (starting with 30 g of pressure) was exerted on the rear part of the paw using a motorized device (Analgesia Meter 57215, UGO BASILE). The cut-off pressure was set at 250 g to prevent possible damage to the paw. Two measurements were taken on each paw, 5 minutes apart, and the average value was used for statistical purposes. Mechanical hyperalgesia appeared as the pressure on the paw decreased.

In the case of `CCCCCOc1ccc(C(=O)c2cccc3ccccc23)c2ccccc12` [CB13, 1-naphthalenyl[4-(pentyloxy)-1-naphthalenyl]methanone], the “antihyperalgesic activity in animal models” value ([1]; animal models) is listed as “powerful antihyperalgesic activity”, the “effect on established mechanical hyperalgesia” value ([1]; oral administration and local injection into the hind paw, pig and rat) is listed as “reverses the established mechanical hyperalgesia” and the “dose with significant CNS effects relative to the oral dose required to reverse hyperalgesia” value (central nervous system) is listed as 20 times. For the same compound, the aqueous solubility [2] was 0.001-0.002 mg/m L, the “penetration into the brain” value ([3]; in vivo) was “limited penetration into the brain” and the “absorption after oral administration” value ([3]; oral) was “not completely absorbed”. The “anti-hyperalgesic effect 9 hours after administration” value ([4]; 9 hours) was “continued to be effective but to a lesser extent” and the “anti-hyperalgesic effect after 24 hours” value ([4]; 24 hours) was “its effectiveness had disappeared”.
